Laboratory results published in ChEMBL document CHEMBL3621142, “Discovery and Evaluation of Clinical Candidate AZD3759, a Potent, Oral Active, Central Nervous System-Penetrant, Epidermal Growth Factor Receptor Tyrosine Kinase Inhibitor” (J Med Chem, 2015).
Active and inactive are the calls of the source. No cut-off for these calls is given here.

Key:
[1] = Clearance in Han Wistar rat at 1 mg/kg, iv; assay type: ADME, organism-based; conditions: in vivo
[2] = (§1) Oral bioavailability in Han Wistar rat at 2 mg/kg; assay type: ADME, organism-based; conditions: Han Wistar, in vivo
[3] = Permeability from apical to basolateral side in MDCK2-MDR1 cells; assay type: ADME, cell-based, Canis lupus familiaris, MDCK-II; conditions: dog, MDCK-MDR1
[4] = Ratio of unbound AUC (0 to 7 hrs) in brain to blood of Han Wistar rat at 2 mg/kg, po by LC-MS/MS analysis; assay type: ADME, organism-based; conditions: Han Wistar, brain and blood, read-out: K(p,uu,brain)
[5] = Fraction unbound in Han Wistar rat blood at 5 uM by equilibrium dialysis method; assay type: ADME, tissue-based; conditions: Han Wistar
[6] = target: Epidermal growth factor receptor (Homo sapiens, UniProt P00533, L858R); assay type: cell-based, H3255
[7] = (§2) AUC (0 to 7 hrs) in Han Wistar rat CSF at 2 mg/kg, po by LC-MS/MS analysis; assay type: ADME, organism-based, Cerebrospinal fluid; set-up: time < 7 hr, dose 2 mg/kg, route oral; conditions: Han Wistar, CSF
[8] = Ratio of unbound AUC (0 to 7 hrs) in CSF to blood of Han Wistar rat at 2 mg/kg, po by LC-MS/MS analysis; assay type: ADME, organism-based; conditions: for Kp uu: Han Wistar, CSF and blood
MDR1 (P-gp) = test: Efflux ratio of permeability from basolateral to apical side over apical to basolateral side in MDCK2-MDR1 cells; assay type: ADME, cell-based, Canis lupus familiaris; conditions: dog, MDCK-MDR1
[9] = AUC (0 to 7 hrs) in Han Wistar rat blood at 2 mg/kg, po by LC-MS/MS analysis; assay type: ADME, organism-based; set-up: dose 2 mg/kg, time < 7 hr, route oral; conditions: Han Wistar, blood
[10] = AUC (0 to 7 hrs) in Han Wistar rat brain at 2 mg/kg, po by LC-MS/MS analysis; assay type: ADME, organism-based; set-up: dose 2 mg/kg, time < 7 hr, route oral; conditions: Han Wistar, brain
[11] = Fraction unbound in Han Wistar rat brain at 5 uM by equilibrium dialysis method; assay type: ADME, tissue-based; conditions: Han Wistar, brain
[12] = Volume of distribution at steady state in Han Wistar rat at 1 mg/kg, iv; assay type: ADME, organism-based; conditions: Han Wistar, in vivo, read-out: Vdss
[13] = AUC(0 to 24 hrs) in Han Wistar rat at 2 mg/kg, po; assay type: ADME, organism-based; set-up: dose 2 mg/kg, time < 24 hr, route oral; conditions: Han Wistar, in vivo
[14] = Elimination half life in Han Wistar rat at 1 mg/kg, iv; assay type: ADME, organism-based; conditions: Han Wistar, in vivo, read-out: beta t1/2 (converted)
BCRP [15] = test: Permeability from apical to basolateral side in BCRP transfected MDCK2 cells; assay type: ADME, cell-based, Canis lupus familiaris, MDCK-II; conditions: dog
[16] = Ratio of unbound AUC (0 to 24 hrs) in CSF to blood of Han Wistar rat at 20 mg/kg, po by LC-MS/MS analysis; assay type: ADME, organism-based; conditions: CSF and blood
PC-9 [17] = test: Antitumor activity against human PC9 cells expressing EGFR exon19 deletion mutant xenografted in mouse at 15 mg/kg, qd measured after 4 weeks; assay type: functional, organism-based
BCRP [18] = test: in vitro; conditions: dog
Description: Efflux ratio of permeability from basolateral to apical side over apical to basolateral side in BCRP transfected MDCK2 cells

Mus musculus = test: Toxicity in PC9 cells expressing EGFR exon19 deletion mutant xenografted mouse assessed as loss of body weight at 15 mg/kg, qd; assay type: organism-based, PC-9; conditions: in vivo
PC-9 [19] = test: Antitumor activity against human PC9 cells expressing EGFR exon19 deletion mutant xenografted in mouse assessed as tumor regression at 15 mg/kg, qd measured after 4 weeks; assay type: functional, organism-based
[20] = Ratio of unbound AUC (0 to 24 hrs) in brain to blood of Han Wistar rat at 20 mg/kg, po by LC-MS/MS analysis; assay type: ADME, organism-based; conditions: brain and blood, read-out: K(p,uu,brain)
Rattus norvegicus = test: as §1; assay type: ADME, organism-based; conditions: in vivo
Cerebrospinal fluid = test: as §2; assay type: ADME, organism-based; set-up: time < 7 hr, dose 2 mg/kg, route oral; conditions: in vivo, 7 h, BLD = below limit of detection

Chain of Epidermal growth factor receptor (P00533 25-1210 L858R limits assumed): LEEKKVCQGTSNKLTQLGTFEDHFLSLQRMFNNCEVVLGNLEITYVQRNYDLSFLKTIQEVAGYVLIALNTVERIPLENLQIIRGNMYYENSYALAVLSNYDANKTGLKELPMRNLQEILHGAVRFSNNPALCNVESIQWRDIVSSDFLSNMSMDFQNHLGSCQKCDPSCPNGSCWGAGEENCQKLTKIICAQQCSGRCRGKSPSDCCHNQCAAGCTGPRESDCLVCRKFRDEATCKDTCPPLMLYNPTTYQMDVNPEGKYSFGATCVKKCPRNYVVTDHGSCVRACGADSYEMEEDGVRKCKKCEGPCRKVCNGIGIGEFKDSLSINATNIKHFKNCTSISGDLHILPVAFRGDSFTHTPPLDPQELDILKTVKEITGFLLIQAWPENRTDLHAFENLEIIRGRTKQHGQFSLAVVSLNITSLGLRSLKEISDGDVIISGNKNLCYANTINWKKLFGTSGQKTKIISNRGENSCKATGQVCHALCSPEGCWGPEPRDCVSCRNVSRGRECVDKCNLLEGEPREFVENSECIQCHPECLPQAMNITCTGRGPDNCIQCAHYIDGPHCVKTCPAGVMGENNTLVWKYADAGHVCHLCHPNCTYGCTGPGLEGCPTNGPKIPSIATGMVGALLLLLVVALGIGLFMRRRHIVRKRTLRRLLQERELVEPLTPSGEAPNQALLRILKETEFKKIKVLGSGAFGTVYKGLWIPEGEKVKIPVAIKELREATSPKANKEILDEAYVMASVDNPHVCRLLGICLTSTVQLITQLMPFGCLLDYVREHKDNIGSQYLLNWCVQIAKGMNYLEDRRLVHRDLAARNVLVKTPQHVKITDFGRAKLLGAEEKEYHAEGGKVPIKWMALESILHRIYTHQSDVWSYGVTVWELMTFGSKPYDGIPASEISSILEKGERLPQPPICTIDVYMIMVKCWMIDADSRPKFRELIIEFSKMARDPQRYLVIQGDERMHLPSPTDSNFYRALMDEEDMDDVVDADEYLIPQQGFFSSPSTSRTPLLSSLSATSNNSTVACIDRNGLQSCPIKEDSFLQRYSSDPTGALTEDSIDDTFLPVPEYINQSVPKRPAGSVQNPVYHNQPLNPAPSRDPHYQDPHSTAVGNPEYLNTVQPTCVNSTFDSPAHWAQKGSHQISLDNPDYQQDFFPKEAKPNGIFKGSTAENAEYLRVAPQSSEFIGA

Row | SMILES | clearance [1] [mL/min/kg] | Papp A→B [3] [×10⁻⁶ cm/s] | Kp uu [4] | fraction unbound at 5 µM [5] | IC50 [6] [nM] | AUC(0-t) at 7 h [7] [µM·h] | Kp uu [8] | efflux ratio (MDR1 (P-gp)) | AUC(0-t) at 7 h [9] [µM·h] | AUC(0-t) at 7 h [10] [µM·h] | fraction unbound at 5 µM [11] | Vd [12] [L/kg] | AUC(0-t) at 24 h [13] [µM·h] | half-life [14] [h] | further results
1 | COc1cc2ncnc(Nc3cccc(Cl)c3F)c2cc1OC(=O)N1CCN(C)[C@H](C)C1 | 55 | 54 | 0.28 | 0.064 | 21.5 | 0.007 | 0.28 | 0.94 | 0.404 | 0.417 | 0.018 | 3.2 | 1.04 | 1.3 | bioavailability [2]: 92%
2 | COc1cc2ncnc(Nc3cccc(Cl)c3F)c2cc1OC(=O)N1CCN(C)[C@@H](C)C1 | 26 | 59 | 0.84 | 0.035 | 16.9 | 0.019 | 3.5 | 1.5 | 0.157 | 0.278 | 0.016 | 1.9 | 0.789 | 1.1 | bioavailability [2]: 24%
3 | COc1cc2ncnc(Nc3ccc(F)c(Cl)c3)c2cc1N1CCOCC1 | – | 29 | 0.42 | 0.022 | 1.5 | 0.001 | 0.79 | 0.18 | 0.077 | 0.085 | 0.0083 | – | – | – | –
4 | COc1cc2ncnc(Nc3cccc(Cl)c3F)c2cc1OC(=O)N1CCOCC1 | – | 42 | 1.7 | 0.038 | 4.1 | 0.005 | 3.4 | 0.58 | 0.042 | 0.104 | 0.026 | – | – | – | –
5 | COc1cc2ncnc(Nc3cccc(Cl)c3F)c2cc1OC(=O)N1CCN(C)C[C@@H]1C | 29 | 51 | 1.6 | 0.023 | – | 0.048 | 2.6 | – | 0.805 | 1.94 | 0.015 | 2.7 | 2.95 | 2.4 | bioavailability [2]: 83%
6 | COc1cc2ncnc(Nc3cccc(Cl)c3F)c2cc1C(=O)N1CCOCC1 | – | 28 | 0.03 | 0.17 | 166 | 0.046 | 0.16 | 2.9 | 1.63 | 0.101 | 0.088 | – | – | – | –
7 | C#Cc1cccc(Nc2ncnc3cc(OCCOC)c(OCCOC)cc23)c1 [ERLOTINIB] | – | 19 | – | 0.045 | – | – | – | 1.7 | – | – | 0.029 | – | – | – | Papp A→B (BCRP [15]): 14 ×10⁻⁶ cm/s; Kp uu [16]: 0.29; Activity (PC-9 [17]): Active; efflux ratio (BCRP [18]): 5.4; Activity (Mus musculus): Toxic; Activity (PC-9 [19]): Active; Kp uu [20]: 0.11
8 | COc1cc2ncnc(Nc3cccc(Cl)c3F)c2cc1OC(=O)N1CC[C@H](N(C)C)C1 | – | 17 | 0.15 | 0.049 | 2.7 | 0.068 | 0.56 | 0.34 | 2.48 | 0.798 | 0.024 | – | – | – | –
9 | COc1cc2ncnc(Nc3cccc(Cl)c3F)c2cc1OC(=O)N1CCN(C)C2CC21 (stereo in doubt; 1i) | 28 | 67 | 0.51 | 0.028 | – | 0.019 | 0.9 | – | 0.786 | 0.585 | 0.019 | 2 | 1.57 | 0.9 | F (Rattus norvegicus): 52%
10 | COc1cc2ncnc(Nc3cccc(Cl)c3F)c2cc1OC(=O)N1C[C@@H]2C[C@H]1CN2C | – | 14 | 0.086 | 0.134 | 2.3 | – | – | 0.39 | 0.454 | 0.332 | 0.016 | – | – | – | AUC (Cerebrospinal fluid): BLD; K(p,uu,CSF) ([8]; csf, BLD = below limit of detection): BLD
11 | COc1cc2ncnc(Nc3cccc(Cl)c3F)c2cc1N1CCOCC1 | – | 32 | 0.96 | 0.058 | 1.5 | 0.002 | 0.93 | 0.29 | 0.033 | 0.085 | 0.022 | – | – | – | –
12 | CN(C)C/C=C/C(=O)Nc1cc2c(Nc3ccc(F)c(Cl)c3)ncnc2cc1O[C@H]1CCOC1 [AFATINIB] | – | 2.5 | – | 0.041 | – | – | – | 11 | – | – | 0.0054 | – | – | – | Papp A→B (BCRP [15]): 1.3 ×10⁻⁶ cm/s; Kp uu [16]: 0.27; efflux ratio (BCRP [18]): 59; Kp uu [20]: 0.0066
13 | COc1cc2ncnc(Nc3cccc(Cl)c3F)c2cc1OC(=O)N1CC[C@@H](N(C)C)C1 | – | 47 | 0.27 | 0.058 | 1.1 | 0.075 | 0.43 | 0.76 | 3 | 2.04 | 0.023 | – | – | – | –
